Assay results taken from patent US5641480A, “Hair care compositions comprising heteroatom containing alkyl aldonamide compounds” (Lever Brothers Company, Division of Conopco, Inc., priority 1994, dated 1997).

How the values were obtained:
[1] = Krafft point determination; type: physicochemical; conditions: 0.1% in water
Protocol: The temperature at and above which surfactants begin to form micelles instead of precipitates is referred to as the Krafft point (Tk) and at this temperature the solubility of a surfactant becomes equal to its CMC (numerical value at which micelles are formed).
The Krafft point was measured by preparing 650 ml of a 0.1% or 1.0% dispersion of aldonamide in water by weight. If the surfactant was soluble at room temperature, the solution was slowly cooled to 0° C. […] (less than zero). If it precipitated out of solution, the temperature at which precipitation occurs was taken as the Krafft point.
If the surfactant was insoluble at room temperature, the dispersion was slowly heated until the solution became homogeneous. It was then slowly cooled until precipitation occurred. The temperature at which the surfactant precipitates out of solution upon cooling was taken as the Krafft point.

[2] = Ross-Miles foam height assay of aldonamides (Examples 81-84); type: physicochemical; conditions: 0.1% aldonamide, 40° C. (if not soluble, about 5°-10° C. above Krafft point), 0 ppm hardness; for Foam Height Final: after 10 minutes
Protocol: In the Ross-Miles method, 200 mL of a suffactant solution contained in a pipette of specified dimensions with a 2.9 -mm-i.d. orifice is allowed to fall 90 cm onto 50 mL of the same solution contained in a cylindrical vessel maintained at a given temperature by means of a water jacket. The height of the foam produced in the cylindrical vessel is read immediately after all the solution has run out of the pipette and then again after a given amount of time.
Using this method, the foam production (initial foam height in mm) and foam stability (final foam height after 10 minutes in mm) were measured at 0.1% aldonamtde concentration, 40° C. and 0 ppm (parts per million) hardness.

| Molecule | Krafft Point (0.1%) [1] | Foam Height Initial [2] | Foam Height Final [2] |
| --- | --- | --- | --- |
| CCCCCCCCCCCCNC(=O)[C@H](O)[C@@H](O)[C@H](O[C@@H]1O[C@H](CO)[C@H](O)[C@H](O)[C@H]1O)[C@H](O)CO [C12 D-Lactobionamide] | 38 °C | 153 mm | 20 mm |
| CCCCCCCCCCCCOC(=O)CCNC(=O)[C@H](O)[C@@H](O)[C@H](O[C@@H]1O[C@H](CO)[C@H](O)[C@H](O)[C@H]1O)[C@H](O)CO [D-Lactobionyl C12 β-Alaninate, N-D-Lactobionyl Dodecyl β-Alaninate] | < 0 °C | 159 mm | 152 mm |
| Dodecyl to Pentadecyloxypropylaminopropyl D-Lactobionamide | < 0 °C | 173 mm | 169 mm |
| Octyl/Decyloxypropyl D-Ribonamide [C8 /C10 Oxypropyl D-Ribonamide] |  | 217 mm | 200 mm |
| CCCCCCCC/C=C\CCCCCCCCNCCCNC(=O)[C@H](O)[C@@H](O)[C@H](O)[C@H](O)CO [Oleylaminopropyl D-Gluconamide] |  | 158 mm | 84 mm |
| CCCCCCCCCCCCNC(=O)[C@@H](O)[C@H](O)[C@H](O)[C@@H](O)CO [C12 L-Galactonamide] |  | Insoluble |  |
| CCCCCCCCCCCCCNC(=O)[C@H](O)[C@@H](O)[C@H](O[C@@H]1O[C@H](CO)[C@H](O)[C@H](O)[C@H]1O)[C@H](O)CO [C13 D-Lactobionamide] | 70 °C |  |  |
| CCCCCCCCCCCCCCCCNC(=O)[C@H](O)[C@@H](O)[C@H](O)[C@H](O)CO [C16 D-Gluconamide] |  | Insoluble |  |
| CCCCCCCCCCCCCCCNC(=O)[C@H](O)[C@@H](O)[C@H](O[C@@H]1O[C@H](CO)[C@H](O)[C@H](O)[C@H]1O)[C@H](O)CO [C15 D-Lactobionamide] | 84 °C |  |  |
| dodecyl to pentadecyloxypropylaminopropyl D-gluconamide |  | 180 mm | 176 mm |
| CCCCCCCCCCCCNC(=O)[C@H](O)[C@@H](O)[C@@H](O)[C@H](O)CO [C12 D-Galactonamide] |  | Insoluble |  |
| CCCCCCCCCCCCOCCCNC(=O)[C@H](O)[C@@H](O)[C@H](O[C@H]1O[C@H](CO)[C@@H](O)[C@H](O)[C@H]1O)[C@H](O)CO [C12 Oxypropyl D-Maltobionamide, Dodecyloxypropyl D-Maltobionamide] | < 0 °C | 163 mm | 155 mm |
| CCCCCCCCCCCCNC(=O)[C@H](O)[C@H](O)[C@@H](O)[C@@H](O)[C@H](O)CO [C12 D-Glycero-L-Mannoheptonamide] |  | Insoluble |  |
| CCCCCCCNC(=O)[C@H](O)[C@@H](O)[C@H](O)[C@H](O)CO [C7 D-Gluconamide] |  | 0 mm | 0 mm |
| Cocoaminopropyl D-Lactobionamide | < 0 °C | 171 mm | 168 mm |
| dodecyl to pentadecyloxypropyl D-gluconamide [C12 -C15 Oxypropyl D-Gluconamide] |  | 200 mm | 110 mm |
| CCCCCCCCCCCCOCCOCCOC(=O)CNC(=O)[C@H](O)[C@@H](O)[C@H](O)[C@H](O)CO [N--D-Gluconyl C12 Di(oxyethyl) Glycinate, N-D-Gluconyl Dodecyldi(oxyethyl) Glycinate] |  | 203 mm | 169 mm |

| Molecule | Krafft Point (0.1%) [1] | Foam Height Initial [2] | Foam Height Final [2] |
| --- | --- | --- | --- |
| Dodecyl to Pentadecyloxypropyl D-Lactobionamide [C12 -C15 Oxypropyl D-Lactobionamide] | < 0 °C | 166 mm | 155 mm |
| CCCCCCCCCCCCCCCCCCNC(=O)[C@H](O)[C@@H](O)[C@H](O[C@@H]1O[C@H](CO)[C@H](O)[C@H](O)[C@H]1O)[C@H](O)CO [C18 D-Lactobionamide] | 82 °C |  |  |
| CCCCCCCC/C=C\CCCCCCCCNCCCNC(=O)[C@H](O)[C@@H](O)[C@H](O[C@@H]1O[C@H](CO)[C@H](O)[C@H](O)[C@H]1O)[C@H](O)CO [Oleylaminopropyl D-Lactobionamide] | < 0 °C | 169 mm | 165 mm |
| CCCCCCCCNC(=O)[C@H](O)[C@@H](O)[C@H](O)[C@H](O)CO [C8 D-Gluconamide] |  | 0 mm | 0 mm |
| CCCCCCCCCCCCCCOCCCNC(=O)[C@H](O)[C@@H](O)[C@H](O[C@@H]1O[C@H](CO)[C@H](O)[C@H](O)[C@H]1O)[C@H](O)CO [C14 Oxypropyl D-Lactobionamide, Tetradecyloxypropyl D-Lactobionamide] | < 0 °C | 163 mm | 154 mm |
| CCCCCCCCCCCCOCCCNC(=O)[C@H](O)[C@H](O)[C@@H](O)[C@H](O)[C@H](O)CO [C12 Oxypropyl D-Glucoheptonamide] |  | 245 mm | 80 mm |
| CCCCCCCCCCCCOC(=O)CNC(=O)[C@H](O)[C@@H](O)[C@H](O)[C@H](O)CO [N--D-Gluconyl C12 Glycinate, N-D-Gluconyl Dodecyl Glycinate] |  | 183 mm | 107 mm |
| CCCCCCCCCCCCCCOCCCNC(=O)[C@H](O)[C@@H](O)[C@H](O)[C@H](O)CO [C14 Oxypropyl D-Gluconamide] |  | 203 mm | 101 mm |
| CCCCCCCCCCCCOC(=O)C(C)NC(=O)[C@H](O)[C@@H](O)[C@H](O)[C@H](O)CO (mixture of isomers) [N--D-Gluconyl C12 DL-Alaninate, N-D-Gluconyl Dodecyl DL-Alaninate] |  | 197 mm | 112 mm |
| CCCCCCCCCCCCNC(=O)C(O)C(O)C(O)C(O)C(O)C(O)CO [C12 D-Glucooctonamide] | 86 °C |  |  |
| CCCCCCCCCCCCCCCCCCNC(=O)[C@H](O)[C@@H](O)[C@H](O)[C@H](O)CO [C18 D-Gluconamide] |  | Insoluble |  |
| CCCCCCCCCCCCNC(=O)[C@H](O)[C@H](O)[C@@H](O)[C@@H](O)CO [C12 L-Mannonamide] |  | Insoluble |  |
| CCCCC(CC)COCCCNC(=O)[C@H](O)[C@@H](O)[C@H](O)[C@H](O)CO (stereo partly drawn) [Ethylhexyloxypropyl D-Gluconamide] |  | 0 mm | 0 mm |
| CCCCCCCCCCCCCCNC(=O)[C@H](O)[C@@H](O)[C@H](O)[C@H](O)CO [C14 D-Gluconamide] |  | Insoluble |  |
| CCCCCCCCCCCCCCNC(=O)[C@H](O)[C@@H](O)[C@H](O[C@H]1O[C@H](CO)[C@@H](O)[C@H](O)[C@H]1O)[C@H](O)CO [C14 D-Maltobionamide] | 46 °C |  |  |
| CCCCCCCCCCCCNC(=O)[C@H](O)[C@H](O)[C@H](O)CO [C12 Ribonamide, Dodecyl D-Ribonamide] |  | 184 mm | 103 mm |
| CCCCCCCCCCCC(=O)OCCNC(=O)[C@H](O)[C@@H](O)[C@H](O)[C@H](O)CO [N--D-Gluconyl C12 Ester of Ethanolamine, N-D-gluconyl dodecyl ester of ethanolamine] |  | 185 mm | 111 mm |
